The target in this assay is T1, human FAAH (Homo sapiens, UniProt O00519).
T1 construct: host or cells: COS-7 cells, transient transfection; 13,000 g membrane fraction solubilised in 1% Triton X-100
T1 sequence (O00519 1-579): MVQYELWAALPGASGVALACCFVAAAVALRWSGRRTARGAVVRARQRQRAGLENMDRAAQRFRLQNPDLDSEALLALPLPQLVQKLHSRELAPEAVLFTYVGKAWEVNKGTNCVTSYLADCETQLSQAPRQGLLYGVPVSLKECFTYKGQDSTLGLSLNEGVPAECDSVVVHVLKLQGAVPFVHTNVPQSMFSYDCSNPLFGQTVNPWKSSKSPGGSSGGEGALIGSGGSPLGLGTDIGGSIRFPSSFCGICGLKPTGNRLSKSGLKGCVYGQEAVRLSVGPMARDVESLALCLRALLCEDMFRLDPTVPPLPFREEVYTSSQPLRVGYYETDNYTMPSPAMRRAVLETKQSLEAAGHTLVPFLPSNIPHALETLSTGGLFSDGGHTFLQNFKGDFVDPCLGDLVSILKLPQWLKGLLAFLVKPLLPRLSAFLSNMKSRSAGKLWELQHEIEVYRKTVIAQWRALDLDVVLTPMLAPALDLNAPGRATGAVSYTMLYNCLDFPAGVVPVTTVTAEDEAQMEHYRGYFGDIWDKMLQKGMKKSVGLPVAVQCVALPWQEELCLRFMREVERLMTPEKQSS
As to the kind of experiment: Human FAAH biochemical inhibition assay (AMC arachidonoyl amide fluorescence). Conditions: Table 2, human FAAH (no asterisk); read-out: Activity (Ki). Put shortly:
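Solubilized membrane fraction from COS-7 cells transfected with human FAAH, used at a final 0.05 mg/ml in 50 mM Hepes pH 7.5, 1 mM EDTA, 0.2% Triton X-100. Inhibitor pre-incubated 30 min at room temperature; 20 uM final AMC arachidonoyl amide added, reaction run 4 h at room temperature, fluorescence read.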
Consider `OB(O)c1ccc(COCc2cccc(C(F)(F)F)c2)cc1F` [II-72], for which the Ki was < 10 nM.

In the case of `OB(O)c1ccc2sc(COc3ccccc3)cc2c1` [II-73], the Ki was < 10 nM. For the compound `OB(O)c1ccc(COCc2ccccc2C(F)(F)F)cc1F` [II-74], the Ki is < 10 nM. For `c1ccc(Oc2ccc(B(Oc3cccc4cccnc34)c3ccccc3)cc2)cc1` [II-75] the value was < 10 nM; for `O=C(CCCc1ccc(B(O)O)cc1)c1ccccc1` [II-76], < 10 nM; for `OB(O)c1ccc(-c2cnco2)cc1` [II-77], 10 to 100 nM.

With `CN(C)c1cccc(Oc2ccc(B(O)O)cc2)c1` [II-78], the Ki was < 10 nM.

Turning to `[O-][S+](Cc1ccc(B(O)O)c(F)c1)c1ccccc1` (stereo not shown) [II-79], the Ki was > 1000 nM. Take `O=S(=O)(Cc1ccccc1)Cc1ccc(B(O)O)c(F)c1` [II-80]: the Ki is > 1000 nM. For `[O-][S+](Cc1ccccc1)Cc1ccc(B(O)O)c(F)c1` (stereo not shown) [II-81] the value was 10 to 1000 nM. In the case of `OB(O)c1ccc(Cc2ccccc2)cc1` [II-82], the Ki is < 10 nM.

For the compound `OB(c1ccccc1)c1ccccc1` [II-83], the Ki is > 1000 nM. For `OB(O)c1ccc(C(O)c2ccccc2)cc1` (stereo not shown) [II-84] the value was 10 to 100 nM; for `OB(O)c1ccc(Oc2cccc(F)c2)c(F)c1` [II-85], < 10 nM. For `C[N+]12CC(=O)O[B-]1(c1ccc(-c3cccc(F)c3)cc1F)OC(=O)C2` (stereo not shown) [II-86] the value was < 10 nM. For the compound `CNc1cc(B(O)O)cc(C(=O)O)c1` [II-87], the Ki was > 1000 nM.

For the compound `CN(C)c1cc(B(O)O)cc(C(=O)O)c1` [II-88], the Ki is > 1000 nM. With `CN(Cc1ccccc1)Cc1ccc(B(O)O)c(F)c1` [II-90], the Ki lay within 10 to 100 nM.

Turning to `OB(O)c1ccc(CN2CCc3ccccc32)cc1F` [II-91], the Ki is < 10 nM. Regarding `OB(O)c1ccc(OCCC2CCCCC2)cc1F` [II-92], the Ki is < 10 nM. Turning to `OB(O)c1ccc(COC2C3CC4CC(C3)CC2C4)cc1` (stereo not shown) [II-93], the Ki is 10 to 100 nM. For the compound `OB(O)c1ccc(COCc2ccccc2-c2ccccc2)cc1` [II-94], the Ki fell in the range of 10 to 100 nM. As for `OB(O)c1ccc2c(c1)CCC(OCc1ccccc1)C2` (stereo not shown) [II-95], the Ki was < 10 nM. As to `O=C(N[C@H](COc1ccc(B(O)O)c(F)c1)Cc1ccccc1)c1ccccc1` [II-96], the Ki is 10 to 100 nM. Take `CN(Cc1ccccc1)[C@H](COc1ccc(B(O)O)c(F)c1)Cc1ccccc1` [II-97]: the Ki was in the range of 10 to 1000 nM. Consider `CN(C)[C@H](COc1ccc(B(O)O)c(F)c1)Cc1ccccc1` [II-98], for which the Ki is > 1000 nM. For `OB(O)Cc1ccc(-c2ccccc2)cc1` [II-99] the value was > 1000 nM; for `OB(O)c1ccc(COCC2CCCCC2)cc1` [II-100], 10 to 100 nM; for `OB(O)c1ccc(COCC23CC4CC(CC(C4)C2)C3)cc1` [II-101], 10 to 100 nM. For `OB(O)c1ccc(COCC2CCCCO2)cc1` (stereo not shown) [II-102] the value was 10 to 100 nM; for `CN(C)[C@@H](COc1ccc(B(O)O)c(F)c1)Cc1ccccc1` [II-103], > 1000 nM; for `OB(O)c1ccc2oc(COc3ccccc3)cc2c1` [II-104], < 10 nM. As for `O=C(N[C@@H](COc1ccc(B(O)O)c(F)c1)Cc1ccccc1)c1ccccc1` [II-105], the figure is 10 to 1000 nM; as for `CN(Cc1ccccc1)[C@@H](COc1ccc(B(O)O)c(F)c1)Cc1ccccc1` [II-106], 10 to 1000 nM. Turning to `CC(C)(C)OC(=O)N1CCC[C@H]1COCc1ccc(B(O)O)cc1` [II-107], the Ki lay within 10 to 100 nM. With `OB(O)c1ccc(OC[C@@H](COCc2ccccc2)OCc2ccccc2)cc1F` [II-108], the Ki was 10 to 100 nM. Consider `OB(O)c1ccc(OCCc2cccnc2)cc1F` [II-109], for which the Ki is < 10 nM. As to `OB(O)c1ccc(OCCc2ccncc2)cc1F` [II-110], the Ki is < 10 nM.

Turning to `OB(O)c1ccc(COCc2cccc3ccccc23)cc1` [II-111], the Ki is < 10 nM. Regarding `CN(Cc1ccc(B(O)O)c2ccccc12)c1ccccc1` [II-112], the inhibitory constant (Ki) is > 1000 nM. On to `OB(O)c1cccc(OCCc2ccccc2)c1` [II-113], for which the Ki was in the range of 10 to 100 nM. As to `OB(O)c1cccc(Oc2ccccc2)c1` [II-114], the Ki is < 10 nM. `OB(O)c1cccc(OCCCc2ccccc2)c1` [II-115]: the Ki was in the range of 10 to 100 nM.

For `CCO/N=C(\c1ccccc1)c1ccc(B(O)O)cc1` [II-116], the inhibitory constant (Ki) is 10 to 100 nM. Take `OB(O)c1ccc(CCOc2ccccc2)cc1` [II-117]: the Ki lay within 10 to 100 nM.

For `OB(O)c1ccc(CNc2cccc3ccccc23)cc1` [II-118], the Ki was > 1000 nM. On to `OB(O)c1ccc(COc2cccc3ccccc23)cc1` [II-119], for which the inhibitory constant (Ki) is < 10 nM.

For `OB(O)c1ccc(OCCCOc2ccccn2)cc1` [II-120], the Ki was in the range of 10 to 100 nM.

With `OB(O)c1cccc(CCOc2ccccc2)c1` [II-121], the Ki is 10 to 100 nM. Turning to `O=c1ccccn1CCCOc1ccc(B(O)O)cc1` [II-122], the Ki was 10 to 100 nM. For `OB(O)c1ccc(COC2CCCc3ccccc32)cc1` (stereo not shown) [II-123], the Ki is 10 to 100 nM.

As for `OB(O)c1ccc(COC2CCc3ccccc32)cc1` (stereo not shown) [II-124], the Ki was < 10 nM. For the compound `Cn1ccc2cc(B(O)O)ccc21` [II-125], the Ki is > 1000 nM. For the compound `CC(OCc1ccc(B(O)O)cc1)c1ccccc1` (stereo not shown) [II-126], the Ki was < 10 nM. In the case of `OB(O)c1ccc(COC2CCCCC2)cc1` [II-127], the Ki is < 10 nM.

For the compound `OB(O)c1ccc(OCCCOc2ccccc2)cc1` [II-128], the Ki is < 10 nM.

Regarding `OB(O)c1ccc(OCCOc2ccccc2)cc1` [II-129], the Ki is < 10 nM.

In the case of `C/C(=N\OCc1ccccc1)c1ccc(B(O)O)cc1` [II-130], the Ki is < 10 nM.

`CN(Cc1ccccc1)Cc1ccc(B(O)O)cc1` [II-131]: the Ki is < 10 nM. Take `OB(O)c1ccc(COCc2ccccc2)cc1` [II-132]: the Ki was < 10 nM. In the case of `CC(C)(C)OC(=O)n1cncc1COc1ccc(B2OC(C)(C)C(C)(C)O2)c(F)c1` [II-133], the Ki was < 10 nM. Consider `OB(O)c1ccc(OCc2ccn[nH]2)cc1F` [II-134], for which the Ki was in the range of 10 to 100 nM. Regarding `OB(O)c1ccc(OCc2cnco2)cc1F` [II-135], the Ki was 10 to 100 nM.

As to `CC(Cc1ccccc1)Oc1ccc(B(O)O)c(F)c1` (stereo not shown) [II-136], the Ki is < 10 nM. As to `C[C@H](COc1ccc(B(O)O)c(F)c1)c1ccccc1` [II-137], the Ki was < 10 nM. As for `OB(O)c1ccc(OC2Cc3ccccc3C2)cc1F` [II-138], the Ki is < 10 nM. For the compound `C[C@@H](COc1ccc(B(O)O)c(F)c1)c1ccccc1` [II-139], the Ki was < 10 nM. Take `O=C(COc1ccc(B(O)O)c(F)c1)c1ccccc1` [II-140]: the Ki was < 10 nM. As for `CN(Cc1ccc(B(O)O)cc1)c1ccccc1` [II-141], the Ki is < 10 nM. For the compound `OB(O)c1ccc(CN2CCc3ccccc32)cc1` [II-142], the Ki was < 10 nM. For `OB(O)c1ccc(CN2CCCc3ccccc32)cc1` [II-143] the value was < 10 nM; for `O=C1c2ccc(B(O)O)cc2C(=O)N1c1ccccc1` [II-144], 10 to 100 nM; for `OB(O)c1ccc(Cn2ccc3ccccc32)cc1` [II-145], < 10 nM. As to `Cc1cc(COc2ccc(B(O)O)c(F)c2)ccc1F` [II-146], the Ki was < 10 nM. On to `CC1(C)OB(c2ccc(OCc3ccn[nH]3)cc2F)OC1(C)C` [II-147], for which the Ki is 10 to 100 nM. As to `CC1(C)OB(c2ccc(OCc3cnco3)cc2F)OC1(C)C` [II-148], the Ki fell in the range of 10 to 100 nM. Consider `OB(O)c1ccc(Oc2cccnc2)cc1F` [II-149], for which the Ki is < 10 nM. Consider `CC1(C)OB(c2ccc(Oc3cccnc3)cc2F)OC1(C)C` [II-150], for which the Ki was < 10 nM. On to `O=C(OCc1ccccc1)c1cc(Oc2cccc(F)c2)ccc1B(O)O` [II-151], for which the Ki was in the range of 10 to 1000 nM. Take `OB(O)c1ccc(CNc2ccccc2)cc1` [II-152]: the Ki is < 10 nM. For `CC1(C)OB(c2ccc(Cn3ccc4ccccc43)cc2)OC1(C)C` [II-153], the Ki was < 10 nM.

With `CC1(C)OB(c2ccc(CNc3ccccc3)cc2)OC1(C)C` [II-154], the Ki was < 10 nM. In the case of `O=C(c1ccc(B(O)O)cc1)N(Cc1ccccc1)c1ccccc1` [II-155], the Ki fell in the range of 10 to 100 nM. As to `OB(O)c1ccc(OCCCc2ccccc2)cc1F` [II-156], the Ki is < 10 nM. For `OB(O)c1ccc(CN(Cc2ccccc2)Cc2ccccc2)cc1` [II-157], the Ki is 10 to 1000 nM. As to `OB(O)c1ccc(CN(c2ccccc2)c2ccccc2)cc1` [II-158], the Ki is > 1000 nM.

As for `OB(O)c1ccc(OCc2cncs2)cc1F` [II-159], the Ki is 10 to 100 nM. Regarding `OB(O)c1ccc(OCc2cccnc2)cc1F` [II-160], the Ki was in the range of 10 to 100 nM.

As for `CC1(C)OB(c2ccc(OCc3cccnc3)cc2F)OC1(C)C` [II-161], the Ki fell in the range of 10 to 100 nM. `Nc1cc(Oc2cccc(F)c2)ccc1B(O)O` [II-162]: the Ki was > 1000 nM. Take `CN(Cc1ccccc1)C(=O)c1ccc(B(O)O)cc1` [II-163]: the Ki was in the range of 10 to 100 nM.

The term Ki denotes a dissociation constant, usually derived from enzyme kinetics or from competition with a known ligand.
